Values quoted from earlier work as cited in patent publication US20100080768A1, “Compositions and Methods for the Treatment of Inflammatory Dermatosis and Other Pathological Conditions of the Skin” (priority 2008, published 2010).

How the values were obtained:
[1] = not given; remark: listed apart in the source

solubility in water: free soluble | pka value [1]: 0.5
SMILES: NC(=O)c1cccnc1 [Nicotinamide, nicotinamide]
